Here are results for 8 compounds from ChEMBL document CHEMBL5154814, “Discovery of MK-1454: A Potent Cyclic Dinucleotide Stimulator of Interferon Genes Agonist for the Treatment of Cancer” (J Med Chem, 2022).

Structures are written as SMILES. Active and inactive are the calls of the source. No cut-off for these calls is given here.

In data set [1] the target is Stimulator of interferon genes protein (Mus musculus, UniProt Q3TBT3). As to conditions: bmdc.
Data set [2] concerns Mus musculus. Nature of the data set: Antitumor immunity in mouse MC38 cells implanted in C57BL/6J mouse assessed as increase in TNF-alpha level in injected tumor at 100 to 500 ug,IT administrated in right flank on day 0 measured after 4 hrs by mesoscale assay. The data set is classed as functional, organism-based. As to conditions: MC-38, dose 100-500 µg.
Data set [3] concerns Mus musculus. Nature of the data set: Antitumor immunity in mouse MC38 cells implanted in C57BL/6J mouse assessed as increase in IFN-beta level in injected tumor at 100 to 500 ug,IT administrated in right flank on day 0 measured after 4 hrs by ELISA. The data set is classed as functional, organism-based. As to conditions: MC-38, dose 100-500 µg. (In an ELISA, binding on a coated surface is turned into a signal by an enzyme label.)

Data set [4] concerns Mus musculus. Nature of the data set: Antitumor immunity in mouse MC38 cells implanted in C57BL/6J mouse assessed as increase in IL-6 level in injected tumor at 100 to 500 ug,IT administrated in right flank on day 0 measured after 4 hrs by mesoscale assay. The data set is classed as functional, organism-based. As to conditions: MC-38, dose 100-500 µg.
Data set [5] can be described thus: Drug uptake in tumor of C57BL/6J mouse implanted with mouse MC38 cells assessed as drug concentration at 20 ug,IT administrated on right flank on day 0 measured upto 1 hr by LC-MS analysis. The data set is classed as ADME, tissue-based, Neoplasm, MC-38. As to conditions: in vivo, other, dose 20 µg.
Data set [6] in a line: Drug uptake in tumor of C57BL/6J mouse implanted with mouse MC38 cells assessed as drug concentration at 20 ug,IT administrated on left flank on day 0 measured upto 1 hr by LC-MS analysis. The data set is classed as ADME, tissue-based, Neoplasm, MC-38. The settings on record: in vivo, other, dose 20 µg.
Data set [7] can be described thus: Drug uptake in plasma of C57BL/6J mouse implanted with mouse MC38 cells assessed as drug concentration at 20 ug,IT administrated on left flank on day 0 measured upto 1 hr by LC-MS analysis. The data set is classed as ADME, cell-free, MC-38. The settings on record: in vivo, other, dose 20 µg.
The nature of data set [8]: Drug uptake in plasma of C57BL/6J mouse implanted with mouse MC38 cells assessed as drug concentration at 20 ug,IT administrated on right flank on day 0 measured upto 1 hr by LC-MS analysis. The settings on record: in vivo, other, dose 20 µg. The data set is classed as ADME, cell-free, MC-38.
For data set [9], the system named is Mus musculus. The experiment in a line: Antitumor immunity in mouse MC38 cells implanted in C57BL/6J mouse assessed as increase in TNF-alpha level in injected tumor at 5 to 20 ug,IT administrated in right flank on day 0 measured after 4 hrs by mesoscale assay. The data set is classed as functional, organism-based. The settings on record: MC-38, dose 5-20 µg.

In data set [10] the test system is MC-38. Nature of the data set: Antitumor activity against mouse MC38 cells implanted in C57BL/6J mouse assessed as reduction in tumor growth on right flank at 20 ug,IT administrated in right flank on day 0, 3 and 7 measured after 15 days. The data set is classed as functional, cell-based. The settings on record: dose 20.0 µg, time 15.0 day.
Data set [11] deals with Mus musculus. The experiment in a line: Antitumor immunity in mouse MC38 cells implanted in C57BL/6J mouse assessed as increase in IFN-beta level in injected tumor at 5 to 20 ug,IT administrated in right flank on day 0 measured after 4 hrs by ELISA. The data set is classed as functional, organism-based. The settings on record: MC-38, dose 5-20 µg.
Data set [12] has as its system MC-38. Nature of the data set: Antitumor activity against mouse MC38 cells implanted in C57BL/6J mouse assessed as reduction in tumor growth on right flank at 5 ug,IT administrated in right flank on day 0, 3 and 7 measured after 15 days. The data set is classed as functional, cell-based. The settings on record: dose 5.0 µg, time 15.0 day.
For data set [13], the system named is MC-38. The experiment in a line: Antitumor activity against mouse MC38 cells implanted in C57BL/6J mouse assessed as reduction in tumor growth at 4 ug,IT administered for day 0,3,7 followed by anti-mouse PD-1 antibody Mdx400 incubated for 28 days measured twice a week. As to conditions: dose 4.0 µg, time 28.0 day. The data set is classed as functional, cell-based.

Data set [14] concerns Mus musculus. The experiment in a line: Antitumor immunity in mouse MC38 cells implanted in C57BL/6J mouse assessed as increase in IL-6 level in injected tumor at 5 to 20 ug,IT administrated in right flank on day 0 measured after 4 hrs by mesoscale assay. The data set is classed as functional, organism-based. As to conditions: MC-38, dose 5-20 µg.
The next data set deals with B16-F10. The experiment in a line: Antitumor activity against mouse B16-F10 cells implanted in C57BL/6J mouse assessed as reduction in tumor growth at 4 ug,IT administered for day 0,3,7 followed by anti-mouse PD-1 antibody Mdx400 incubated for 28 days measured twice a week. The data set is classed as functional. As to conditions: dose 4.0 µg, time 28.0 day.

Sequence of Stimulator of interferon genes protein (Q3TBT3 whole entry, looked up, change not shown): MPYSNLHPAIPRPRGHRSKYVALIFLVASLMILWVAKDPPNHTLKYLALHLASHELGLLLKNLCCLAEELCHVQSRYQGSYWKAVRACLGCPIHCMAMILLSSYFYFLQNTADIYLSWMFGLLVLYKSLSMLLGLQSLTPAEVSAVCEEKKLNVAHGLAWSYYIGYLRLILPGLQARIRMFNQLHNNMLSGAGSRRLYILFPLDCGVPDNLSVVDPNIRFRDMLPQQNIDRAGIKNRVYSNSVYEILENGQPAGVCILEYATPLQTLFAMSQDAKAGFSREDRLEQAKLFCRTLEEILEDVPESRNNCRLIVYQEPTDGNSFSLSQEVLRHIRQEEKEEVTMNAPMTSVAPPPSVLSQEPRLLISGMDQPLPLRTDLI

`Nc1nc2c(ncn2[C@@H]2O[C@@H]3CO[P@@](=O)(S)O[C@H]4[C@H]5OC[C@]4(CO[P@@](=O)(S)O[C@@H]2[C@@H]3O)O[C@H]5n2cnc3c(N)ncnc32)c(=O)[nH]1`: the EC50 (commonly the concentration that produces a half-maximal response) in [1] was 5.38 µM.

In the case of `Nc1nc2c(ncn2[C@@H]2O[C@@H]3COP(=O)(O)O[C@H]4[C@@H](O)[C@H](n5cnc6c(N)ncnc65)O[C@@H]4COP(=O)(O)O[C@@H]2[C@@H]3O)c(=O)[nH]1`, the result with Mus musculus [2], in the data set with Mus musculus [3] and in the data set with Mus musculus [4] was Active.

Consider `Nc1nc2c(ncn2[C@@H]2O[C@@H]3COP(=O)(O)O[C@H]4[C@H]5OC[C@]4(COP(=O)(O)O[C@@H]2C3)O[C@H]5n2cnc3c(N)ncnc32)c(=O)[nH]1`, for which, in data set [1], the EC50 is above 100 µM.

Compound `Nc1nc2c(ncn2[C@@H]2O[C@@H]3CO[P@@](=O)(S)O[C@H]4C[C@H](n5cnc6c(N)ncnc65)O[C@@H]4CO[P@@](=O)(S)O[C@@H]2[C@@H]3F)c(=O)[nH]1` yielded a concentration for a half-maximal effect (EC50) in data set [1] of 3.21 µM.

Turning to `N.N.Nc1nc2c(ncn2[C@@H]2O[C@@H]3CO[P@@](=O)(S)O[C@H]4[C@H](F)[C@H](n5cnc6c(N)ncnc65)O[C@@H]4CO[P@@](=O)(S)O[C@@H]2[C@@H]3F)c(=O)[nH]1`, the Drug uptake entry in [5], in [6], in data set [7] and in data set [8] was “Active” each time.

`Nc1nc2c(ncn2[C@@H]2O[C@@H]3CO[P@@](=O)(S)O[C@H]4[C@@H](F)[C@H](n5cnc6c(N)ncnc65)O[C@@H]4CO[P@@](=O)(S)O[C@@H]2[C@@H]3O)c(=O)[nH]1` displayed an EC50 in data set [1] of 1.55 µM.

In the case of `Nc1nc2c(ncn2[C@@H]2O[C@@H]3CO[P@@](=O)(S)O[C@H]4[C@@H](O)[C@H](n5cnc6c(N)ncnc65)O[C@@H]4CO[P@@](=O)(S)O[C@@H]2C3)c(=O)[nH]1`, the EC50 in data set [1] was found to be 6.23 µM.

For `Nc1nc(=O)c2ncn([C@@H]3O[C@@H]4CO[P@@](=O)(S)O[C@H]5[C@H](F)[C@H](n6cnc7c(N)ncnc76)O[C@@H]5CO[P@@](=O)(S)O[C@@H]3[C@@H]4F)c2[nH]1`, the result in the data set on Mus musculus [9], in the data set on MC-38 [10], with Mus musculus [11], in the data set with MC-38 [12], with MC-38 [13] and with Mus musculus [14] was Active. Besides, the result in the data set with B16-F10 was Active.
